Article PMC9704406 (Virulence, 2022)

Test system: Smh1
Format: biochemical, Legionella pneumophila
Conditions: 50 µM TSA, 30 min preincubation; enzyme 156.25 ng/ml; inhibitor

CC(/C=C/C(=O)NO)=C\[C@@H](C)C(=O)c1ccc(N(C)C)cc1 [Trichostatin A] was tested, and the “HDAC-Glo I/II luminescence assay” value was “TSA significantly reduced Smh1 HDAC activity in comparison to Smh1 alone”.
